# Measurements from patent US9624233B2, “Compounds for treating pruritic conditions” (priority 2015, dated 2017).
# Values joined by “and” are separate entries in the source; they are usually repeats but may differ in a detail not shown here. Identical values can stand only once.
# Legend:
# [1] = biological target: T1, cloned human δ-opioid receptor expressed in CHO (Homo sapiens, UniProt P41143); experiment: Opioid cell functional assay, opioid-agonist assay, CHO-δ; format: cell-based; settings: cell functional assays
# T1 construct: expressed in transfected cells; host or cells: CHO cells
# [2] = biological target: T2, μ-opioid receptor expressed in HEK cells (Mus musculus, UniProt P42866); experiment: Opioid receptor binding study, HEK-μ, [3H]DAMGO
# T2 construct: expressed in transfected cells; host or cells: HEK (human embryonic kidney) cells
# ER (non-selective) (h) = experiment: Abuse liability binding screen, ER (non-selective) (h) (agonist radioligand); design: species or system human; settings: 2.5E−05M
# Procedure: (§1) Compound binding was calculated as a % inhibition of the binding of a radioactively labeled ligand specific for each target.
# OX2 (h) = biological target: T3, OX2 (h) (Homo sapiens, UniProt O43614); experiment: Abuse liability binding screen, OX2 (h) (agonist radioligand)
# T3 sequence (O43614 1-444): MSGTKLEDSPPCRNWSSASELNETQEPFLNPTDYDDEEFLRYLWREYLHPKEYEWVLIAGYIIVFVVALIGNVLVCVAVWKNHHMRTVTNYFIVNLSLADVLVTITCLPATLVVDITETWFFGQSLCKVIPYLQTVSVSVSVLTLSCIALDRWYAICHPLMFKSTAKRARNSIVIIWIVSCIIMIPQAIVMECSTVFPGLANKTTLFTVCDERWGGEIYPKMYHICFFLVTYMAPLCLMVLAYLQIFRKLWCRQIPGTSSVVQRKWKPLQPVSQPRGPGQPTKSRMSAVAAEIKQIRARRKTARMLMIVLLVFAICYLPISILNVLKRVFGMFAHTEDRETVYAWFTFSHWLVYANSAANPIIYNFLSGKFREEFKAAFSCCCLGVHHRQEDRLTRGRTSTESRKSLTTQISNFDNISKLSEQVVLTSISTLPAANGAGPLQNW
# Procedure: […]. The abuse liability screen included 44 targets (receptors, transporters, on gated-channel systems) related to the dopamine, norepinephrine, serotonin, gamma-aminobutyric acid (GABA), acetylcholine, N-methyl-D-aspartate (NMDA) cannabinoid and opioid neurotransmitter systems as recommended in FDA Draft guidance on Assessment of Abuse Potential of Drugs, January 2010.
# as §1
# Results showing an inhibition or stimulation higher than 50% are considered to represent significant effects of the test compounds.
# Na^+ channel (site 2) = experiment: Abuse liability binding screen, Na+ channel (site 2) (antagonist radioligand); settings: 2.5E−05M
# Procedure: as §1
# [3] = biological target: T2, μ-opioid receptor expressed in HEK cells; experiment: Opioid cell functional assay, opioid-antagonist assay, HEK-μ (CTOP); format: cell-based
# κ (KOP) = κ (KOP) (Rattus norvegicus, UniProt P34975); experiment: Binding screen and IC50 determination, κ (KOP) (agonist radioligand)
# Procedure: as §1
# μ (MOP) (h) = μ (MOP) (h) (Homo sapiens, UniProt P35372); experiment: biochemical; format: binding
# Procedure: as §1
# [4] = tested on: Cl^− channel (GABA-gated); experiment: Abuse liability binding screen, Cl− channel (GABA-gated) (antagonist radioligand); settings: 2.5E−05M
# Procedure: as §1
# [5] = biological target: T1, cloned human δ-opioid receptor expressed in CHO; experiment: Opioid receptor binding study, CHO-δ, [3H]DPDPE; settings: @ 25,000 nM, [3H]DADLE, read-out: % inhibition printed in the IC50 column
# [6] = biological target: T4, cloned human κ-opioid receptor expressed in CHO (Homo sapiens, UniProt P41145); experiment: biochemical; format: binding
# [7] = biological target: T4, cloned human κ-opioid receptor expressed in CHO; experiment: cell-based; settings: opioid-agonist assay
# [8] = biological target: T2, μ-opioid receptor expressed in HEK cells; experiment: Opioid cell functional assay, opioid-agonist assay, HEK-μ; format: cell-based
# [9] = Plasma Cmax in HD patients; settings: human
# AMPA = experiment: Abuse liability binding screen, AMPA (antagonist radioligand); settings: 2.5E−05M
# Procedure: as §1
# BZD (central) = experiment: Abuse liability binding screen, BZD (central) (agonist radioligand); settings: 2.5E−05M
# Procedure: as §1
# GABA transporter = experiment: Abuse liability binding screen, GABA transporter (antagonist radioligand); settings: 2.5E−05M
# Procedure: as §1
# PCP = experiment: Abuse liability binding screen, PCP (antagonist radioligand); settings: 2.5E−05M
# Procedure: as §1
# kainate = experiment: Abuse liability binding screen, kainate (agonist radioligand); settings: 2.5E−05M
# Procedure: as §1
# NMDA = experiment: Abuse liability binding screen, NMDA (antagonist radioligand); settings: 2.5E−05M
# Procedure: as §1
# [10] = tested on: glycine (strychnine−insensitive); format: binding; settings: 2.5E−05M
# Procedure: as §1
# [11] = biological target: T4, cloned human κ-opioid receptor expressed in CHO; experiment: cell-based; design: Max Inh (%): dose or concentration left out as unconfirmed; settings: opioid-antagonist assay
# [12] = against a μ-opioid receptor agonist ligand
# T4 sequence (P41145 whole entry): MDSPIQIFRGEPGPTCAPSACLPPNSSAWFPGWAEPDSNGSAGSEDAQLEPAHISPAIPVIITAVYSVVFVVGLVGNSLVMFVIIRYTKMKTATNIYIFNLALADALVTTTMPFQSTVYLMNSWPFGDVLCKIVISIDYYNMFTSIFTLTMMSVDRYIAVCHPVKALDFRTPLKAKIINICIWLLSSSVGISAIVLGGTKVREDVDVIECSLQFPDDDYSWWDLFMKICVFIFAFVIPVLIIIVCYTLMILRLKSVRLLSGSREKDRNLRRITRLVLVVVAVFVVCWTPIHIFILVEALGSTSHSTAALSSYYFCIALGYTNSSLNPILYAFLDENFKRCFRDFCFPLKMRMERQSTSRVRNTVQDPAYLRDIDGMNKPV
# T2 sequence (P42866 whole entry): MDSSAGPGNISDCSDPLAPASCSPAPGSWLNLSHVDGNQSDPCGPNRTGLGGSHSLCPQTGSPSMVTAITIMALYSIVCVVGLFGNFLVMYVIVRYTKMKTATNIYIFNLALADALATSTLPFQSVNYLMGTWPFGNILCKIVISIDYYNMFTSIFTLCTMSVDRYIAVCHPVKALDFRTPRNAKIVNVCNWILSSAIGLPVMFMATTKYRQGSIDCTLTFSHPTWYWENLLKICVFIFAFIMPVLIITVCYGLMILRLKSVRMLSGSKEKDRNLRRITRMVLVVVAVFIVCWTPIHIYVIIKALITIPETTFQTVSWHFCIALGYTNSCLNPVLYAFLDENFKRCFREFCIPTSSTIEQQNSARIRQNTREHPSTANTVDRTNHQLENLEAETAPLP
# κ (KOP), sequence (P34975 whole entry): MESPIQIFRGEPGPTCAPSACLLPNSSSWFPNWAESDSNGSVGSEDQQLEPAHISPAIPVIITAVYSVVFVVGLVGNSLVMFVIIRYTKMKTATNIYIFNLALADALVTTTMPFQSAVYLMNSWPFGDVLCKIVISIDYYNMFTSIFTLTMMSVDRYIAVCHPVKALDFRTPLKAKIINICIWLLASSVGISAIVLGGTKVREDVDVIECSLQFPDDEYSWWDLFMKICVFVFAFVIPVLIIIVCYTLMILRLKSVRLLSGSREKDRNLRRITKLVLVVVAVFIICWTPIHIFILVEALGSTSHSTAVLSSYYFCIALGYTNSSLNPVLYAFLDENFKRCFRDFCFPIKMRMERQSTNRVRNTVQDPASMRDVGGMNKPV
# μ (MOP) (h), sequence (P35372 whole entry): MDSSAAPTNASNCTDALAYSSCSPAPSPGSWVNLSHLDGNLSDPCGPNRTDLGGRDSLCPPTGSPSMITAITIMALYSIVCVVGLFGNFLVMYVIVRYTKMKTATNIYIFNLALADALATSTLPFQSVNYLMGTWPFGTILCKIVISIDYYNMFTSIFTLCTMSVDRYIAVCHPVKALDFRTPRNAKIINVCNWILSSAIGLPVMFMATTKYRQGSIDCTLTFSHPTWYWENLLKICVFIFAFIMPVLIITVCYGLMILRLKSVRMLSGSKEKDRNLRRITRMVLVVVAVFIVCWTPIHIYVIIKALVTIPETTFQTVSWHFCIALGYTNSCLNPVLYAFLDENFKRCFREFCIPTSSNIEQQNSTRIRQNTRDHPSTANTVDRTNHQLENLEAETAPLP
# T1 sequence (P41143 whole entry): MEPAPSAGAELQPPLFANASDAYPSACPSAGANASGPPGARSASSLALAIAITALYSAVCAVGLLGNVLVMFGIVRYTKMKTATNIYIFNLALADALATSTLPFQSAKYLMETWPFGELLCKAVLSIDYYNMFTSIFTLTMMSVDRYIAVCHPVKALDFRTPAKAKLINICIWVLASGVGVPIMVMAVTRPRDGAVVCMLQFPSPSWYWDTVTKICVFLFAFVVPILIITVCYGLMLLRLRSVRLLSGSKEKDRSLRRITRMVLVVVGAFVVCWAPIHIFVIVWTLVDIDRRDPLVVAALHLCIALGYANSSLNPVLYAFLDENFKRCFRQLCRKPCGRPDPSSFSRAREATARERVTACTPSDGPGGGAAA
smiles,measurement,setting,value
O=C(O)CC(CO)CN1CC[C@]23c4c5ccc(O)c4O[C@H]2[C@@H](O)CC[C@@]3(O)[C@H]1C5 (some centres unmarked) [Compound 1],activity at the delta receptor,[1],no activity
same,IC50,[2],3.2 µM
same,Ki,[2],1.3 µM
same,NAL Selectivity relative to Comp1 / M5 (Compound 1 or M5 Ki/NAL Ki),[2]; μ-receptor,929
same,% Inhibition of Control Specific Binding 1st,ER (non-selective) (h),−8.0%
same,% Inhibition of Control Specific Binding 2nd,ER (non-selective) (h),4.3%
same,% Inhibition of Control Specific Binding Mean,ER (non-selective) (h),−1.9%
same,% Inhibition of Control Specific Binding 1st,OX2 (h); 2.5E−05M,−9.6%
same,% Inhibition of Control Specific Binding 2nd,OX2 (h); 2.5E−05M,−11.9%
same,% Inhibition of Control Specific Binding Mean,OX2 (h); 2.5E−05M,−10.7%
same,% Inhibition of Control Specific Binding 1st,Na^+ channel (site 2),−4.4%
same,% Inhibition of Control Specific Binding 2nd,Na^+ channel (site 2),21.0%
same,% Inhibition of Control Specific Binding Mean,Na^+ channel (site 2),8.3%
same,IC50,[3],> 30 µM
same,inhibition at 30 µM,"[3]; HEK293, read-out: Max Inh (%)",-1%
same,IC50,κ (KOP),74 µM
same,Ki,κ (KOP),49 µM
same,nH,κ (KOP); IC50 determination,0.7
same,% Inhibition of Control Specific Binding Mean,μ (MOP) (h); 2.5E−05M,92.0%
same,nH,μ (MOP) (h); IC50 determination,0.6
same,IC50,μ (MOP) (h); [12],3.2 µM
same,Ki,μ (MOP) (h); [12],1.3 µM
same,% Inhibition of Control Specific Binding 1st,[4],1.7%
same,% Inhibition of Control Specific Binding 2nd,[4],1.0%
same,% Inhibition of Control Specific Binding Mean,[4],1.3%
same,inhibition at 25 µM,[5],11%
same,IC50,"[6]; CHO-κ, [3H]U 69593",74 µM
same,Ki,"[6]; CHO-κ, [3H]U 69593",49 µM
same,NAL Selectivity relative to Comp1 / M5 (Compound 1 or M5 Ki/NAL Ki),[6]; k-receptor,"13,611"
same,EC50,[7],> 100 µM
same,Max Inh (%),[7],14%
same,EC50,"[8]; EC50 (nM), opioid-agonist assay, HEK-μ",78000 nM and ~78000 nM
same,EC50,"[8]; EC50, μ-opioid receptor partial agonist/antagonist",~173000 nM
same,μ-agonist EC50 relative to Cmax in HD patients,[8]; EC50 exceeding Cmax,~4 fold
same,Max Inh (%),"[8]; opioid-agonist assay, HEK-μ",61%
same,Cmax,[9],~16 µM
same,% Inhibition of Control Specific Binding 1st,AMPA,0.9%
same,% Inhibition of Control Specific Binding 2nd,AMPA,−3.7%
same,% Inhibition of Control Specific Binding Mean,AMPA,−1.4%
same,% Inhibition of Control Specific Binding 1st,BZD (central),3.4%
same,% Inhibition of Control Specific Binding 2nd,BZD (central),3.0%
same,% Inhibition of Control Specific Binding Mean,BZD (central),3.2%
same,% Inhibition of Control Specific Binding 1st,GABA transporter,7.4%
same,% Inhibition of Control Specific Binding 2nd,GABA transporter,−6.2%
same,% Inhibition of Control Specific Binding Mean,GABA transporter,0.6%
same,% Inhibition of Control Specific Binding 1st,PCP,−12.2%
same,% Inhibition of Control Specific Binding 2nd,PCP,−1.4%
same,% Inhibition of Control Specific Binding Mean,PCP,−6.8%
same,% Inhibition of Control Specific Binding 1st,kainate,6.3%
same,% Inhibition of Control Specific Binding 2nd,kainate,34.1%
same,% Inhibition of Control Specific Binding Mean,kainate,20.2%
same,% Inhibition of Control Specific Binding 1st,NMDA,−12.5%
same,% Inhibition of Control Specific Binding 2nd,NMDA,−9.8%
same,% Inhibition of Control Specific Binding Mean,NMDA,−11.1%
same,% Inhibition of Control Specific Binding 1st,[10],−13.5%
same,% Inhibition of Control Specific Binding 2nd,[10],−9.7%
same,% Inhibition of Control Specific Binding Mean,[10],−11.6%
same,Max Inh (%),[11],−10% @
same,IC50,"[11]; Nor-BNI, read-out: EC50 (nM) column (IC50 per footnote)",> 30000 nM
"Oc1ccc2c3c1O[C@H]1[C@@H](O)CC[C@@]4(O)[C@@H](C2)N(CC2CCC2)CC[C@]314 [Nalbuphine, nalbuphine]",% Inhibition of Control Specific Binding 1st,OX2 (h); 1.0E−05M,−11.3%
same,% Inhibition of Control Specific Binding 2nd,OX2 (h); 1.0E−05M,−7.4%
same,% Inhibition of Control Specific Binding Mean,OX2 (h); 1.0E−05M,−9.4%
